“Also recorded” adds a separate entry of the source. Where two headings read alike, the source gives them in different places.
Columns and labels:
[1] = Computational prediction of physicochemical properties and solubility
human CB1 receptor [2] = molecular target: T1, human CB1 receptor (Homo sapiens, UniProt P21554); type: binding; conditions: for Effect on binding of agonist CP55,940 (in words): [3H]CP55,940 tracer, modulator 1 nM–10 µM
human CB1 receptor [3] = molecular target: T1, human CB1 receptor; type: binding; conditions: for cooperativity factor: [3H]SR141716A (1 nM) as orthosteric inverse agonist; for Effect on SR141716A binding (in words): [3H]SR141716A tracer, modulator 1 nM–10 µM
CB1 [4] = conditions: CP55,940 as the tracer; cited from earlier work
rats = conditions: cited from earlier work
CB1 [5] = conditions: cited from earlier work
CB1 [6] = conditions: cited from earlier work; remark: listed apart in the source
CB1 [7] = conditions: cited from earlier work; remark: listed apart in the source
[8] = on introducing ethanolamine into LDK1321 (6a) and LDK1324 (6b)
[9] = read-out: KB (equilibrium dissociation), [3H]CP55,940 (0.5 nM) as orthosteric ligand, 95% CI in parentheses, NB = no detectable binding with test compound up to 10 µM

T1 sequence (P21554 whole entry): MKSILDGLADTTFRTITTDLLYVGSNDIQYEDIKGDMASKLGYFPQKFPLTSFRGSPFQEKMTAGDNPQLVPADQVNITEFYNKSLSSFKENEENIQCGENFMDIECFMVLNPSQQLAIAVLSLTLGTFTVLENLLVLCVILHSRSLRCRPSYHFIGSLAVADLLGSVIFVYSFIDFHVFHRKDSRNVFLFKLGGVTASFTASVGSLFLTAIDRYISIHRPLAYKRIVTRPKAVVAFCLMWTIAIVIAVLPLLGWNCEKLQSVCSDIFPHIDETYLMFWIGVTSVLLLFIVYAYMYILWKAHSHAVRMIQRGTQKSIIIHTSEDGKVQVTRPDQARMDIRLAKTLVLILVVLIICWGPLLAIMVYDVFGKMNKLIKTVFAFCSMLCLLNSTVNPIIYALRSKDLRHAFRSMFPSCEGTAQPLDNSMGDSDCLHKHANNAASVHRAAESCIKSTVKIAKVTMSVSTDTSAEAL

| Structure (SMILES) | Kb (human CB1 receptor [2]; [9]) | Kb (human CB1 receptor [2]) | Effect on binding of agonist CP55,940 (in words) (human CB1 receptor [2]) | cooperativity factor (human CB1 receptor [3]) | Effect on SR141716A binding (in words) (human CB1 receptor [3]) | also measured |
| --- | --- | --- | --- | --- | --- | --- |
| N#Cc1ccc(NC(=O)Nc2cccc(-c3cccc(NCCO)n3)c2)cc1 [LDK1325, 1-(4-Cyanophenyl)-3-(3-(6-((2-hydroxyethyl)amino)pyridin-2-yl)phenyl)urea] | > 10000 nM |  |  |  |  | Enhancement of calculated intrinsic solubility [1, 8]: approximately 20 fold; Effect on binding of agonist CP55,940 (in words) (human CB1 receptor [2]; listed as LDK1325 (8b)): no binding; also recorded: lost its binding affinity |
| CC(=O)Nc1cccc(NC(=O)Nc2ccc(C#N)cc2)c1 [LDK1317, N-(3-(3-(4-Cyanophenyl)ureido)phenyl)acetamide] |  | 110 nM | enhanced the binding of agonist CP55,940 to some degree |  |  |  |
| N#Cc1ccc(NC(=O)Nc2cccc(-c3cccc(Cl)n3)c2)cc1 [LDK1324, 1-(3-(6-Chloropyridin-2-yl)phenyl)-3-(4-cyanophenyl)urea] |  | 300 nM |  | < 1 | robust, dose-dependent decrease | Effect on binding of agonist CP55,940 (in words) (human CB1 receptor [2]; listed as LDK1324 (6b)): enhanced the binding of agonist CP55,940 to some degree |
| N#Cc1ccc(NC(=O)Nc2cccc(-c3ccnc(NCCO)n3)c2)cc1 [LDK1323, 1-(4-Cyanophenyl)-3-(3-(2-((2-hydroxyethyl)amino)pyrimidin-4-yl)phenyl)urea] |  | 200 nM |  | < 1 | modest decrease | Enhancement of calculated intrinsic solubility [1, 8]: approximately 20 fold; Effect on binding of agonist CP55,940 (in words) (human CB1 receptor [2]; listed as LDK1323 (8a)): enhanced the binding of agonist CP55,940 to some degree; also recorded: modest, but positive influence |
| N#Cc1ccc(NC(=O)Nc2ccc3cc[nH]c3c2)cc1 [LDK1319, 1-(4-Cyanophenyl)-3-(1H-indol-6-yl)urea] | > 10000 nM |  | no binding |  |  |  |
| N#Cc1ccc(NC(=O)Nc2cccc(-c3cccc(N4CCCC4)n3)c2)cc1 |  |  |  |  |  | EC50 (CB1 [4]): 55 nM |
| CN(C)c1ccc(NC(=O)Nc2ccc(C#N)cc2)cc1 [LDK1320, 1-(4-Cyanophenyl)-3-(4-(dimethylamino)phenyl)urea] |  | 830 nM |  |  |  | Enhancement of calculated intrinsic solubility ([1]; vs PSNCBAM-1, on reducing the number of rings to 2): about 400 fold; Effect on binding of agonist CP55,940 (in words) (human CB1 receptor [2]; listed as LDK1320 (12b)): enhanced the binding of agonist CP55,940 to some degree |
| O=C(Nc1ccc(Cl)cc1)Nc1cccc(-c2cccc(N3CCCC3)n2)c1 [PSNCBAM-1, 1-(4-Chlorophenyl)-3-{3-[6-(pyrrolidin-1-yl)pyridin-2-yl]phenyl} urea] |  |  |  |  |  | Food intake and body weight (rats): reduced food intake and body weight; Effect in cAMP assay (CB1 [5]): noncompetitive, inhibitory effects; Effect in GTPγS assay (CB1 [6]): noncompetitive, inhibitory effects; Effect on binding of the CB1 agonist CP55,940 (CB1 [7]): enhanced binding; Effect on binding of the inverse agonist SR141716A (CB1 [7]): reducing the binding |
| N#Cc1ccc(NC(=O)Nc2cccc(-c3ccnc(Cl)n3)c2)cc1 [LDK1321, 1-(3-(2-Chloropyrimidin-4-yl)phenyl)-3-(4-cyanophenyl)urea] |  | 85 nM |  | < 1 | robust, dose-dependent decrease | Effect on binding of agonist CP55,940 (in words) (human CB1 receptor [2]; listed as LDK1321 (6a)): enhanced the binding of agonist CP55,940 to some degree; also recorded: successful in enhancing the binding of agonist CP55,940 |
| N#Cc1ccc(NC(=O)Nc2ccc3[nH]ccc3c2)cc1 [LDK1318, 1-(4-Cyanophenyl)-3-(1H-indol-5-yl)urea] | > 10000 nM |  | no binding |  |  |  |

From article PMC6994307 (Current Therapeutic Research, Clinical and Experimental, 2019)
